Series [1] relates to MDA-MB-231 cells. Description: Western blotting (AMPK, EMT proteins). It counts as cell-based, human. The settings on record: 48 h. As for the experimental part:
(§1) For western blotting (WB), whole-protein extracts from MDA-MB-231, SkBr3 and MDA-MB-436 cells were prepared using RIPA buffer (50 mM Tris pH 7.4, 150 mM NaCl, 1% Triton-X-100, 0.05% sodium deoxycholate, 1 mM EDTA, 0.1% SDS, protease inhibitor cocktail and PhosSTOP Phosphatase Inhibitor Cocktail (Roche®)), centrifuged at 10,000×g for 10 min, and quantified using the Bio-Rad® Protein Assay. Proteins (50 μg for MDA-MB-231 and 100 μg for SkBr3 and MDA-MB-436 cells) were loaded into each lane of a 10-12% polyacrylamide gel in the presence of SDS, and were allowed to separate at 120 V for 90 min. The transfer of proteins onto nitrocellulose membranes was performed using an iBlot 2 Dry Blotting System (Thermo Fisher Scientific®) with the 7 min P0 program. Membranes were then blocked using 5% (w/v) powdered milk for 1 h, and incubated overnight at 4° C. with a primary antibody (Table 4).
(§2) β-actin served as a loading control. Immunodetection was performed at room temperature for 1 h using as secondary antibodies a horseradish peroxidase-conjugated goat anti-rabbit (Jackson®, Cat #111-035-003) and goat anti-mouse (Jackson®, Cat #115-035-003) in PBS-Tween containing 5% (w/v) milk or BSA. Detection was performed with ECL reagent (Amersham®, Cat #RPN2209), and protein bands were visualized and captured using ECL imager 600 (Amersham®). They were analyzed using the Image J software (Java).
(Immunoblotting shows a protein as a band on a membrane.)

For series [2], the system named is SkBr3 cells. Description: Western blotting (AMPK, EMT proteins). The note with it: 48 h. The series is classed as cell-based, human. The method, then: as §1, §2
Another series deals with MDA-MB-231 spheroids. Nature of the series: Spheres / stem-like spheroids. The series is classed as cell-based, human. The method, then: (§3) Total mRNA from MDA-MB-231, SkBr3 and MDA-MB-436 cells treated ±MitoQ for 48 h was extracted using the NucleoSpin RNA Kit (Macherey-Nagel®). Total mRNA from primary tumors was extracted with Tri reagent (Molecular Research Center®, Cat #TR118). mRNAs were quantified by the Qubit BR dsRNA assay kit (Thermo Fisher Scientific®), and mRNA integrity was evaluated on an Agilent® 2100 Bioanalyzer with the RNA 6000 nano kit (Agilent®). It was reverse transcribed in complementary DNA using the High-Capacity cDNA Reverse Transcription Kit (Applied Biosystems®, cat #4368814) according to manufacturer's protocol. Complementary DNA (500 ng) was amplified by real time quantitative PCR (RT-qPCR) using the low ROX SYBR Master Mix dTTP Blue (Eurogentec®) and primers listed in Table 5 and Table 6 on a ViiA 7 Real-Time PCR System (Thermo Fisher Scientific®). Gene expression was normalized to β-actin gene expression.
(§4) 3D models were used to obtain an enriched population in stem cells. For that, 10^4 MDA-MB-231, SkBr3 or MDA-MB-436 cancer cells were grown in suspension using 10 cm dishes coated with Polyhema in stem-cell medium: DMEM/F-12 (Gibco®, cat #11320033) supplemented with 100 units/mL penicillin, 100 μg/mL streptomycin, 20 μL/mL B27 (Gibco®, cat #17504044), 20 ng/mL human recombinant epithelial growth factor (EGF) (Peprotech®, cat #AF-100-15), 10 ng/mL basic fibroblast growth factor (bFGF; Peprotech®, cat #100-18B) and 2.5 mg/mL insulin. When spheres reached around 100 μm in diameter, they were washed with PBS and dissociated with accutase (Stem Cell Technology®, cat #07920) in order to have single cells again. At the third passage, dissociated spheres were treated ±MitoQ for 96 h. Images were captured on Axiovert™ 40 CFL microscope equipped with a MRC camera. At the end of the treatment, living cells were collected for RNA extraction.
(§5) Stem like-spheroids were prepared by seeding 5,000 MDA-MB-231, SkBr3 or MDA-MB-436 dissociated spheres/well in ultra-Low attachment 96-well plates (Corning®, cat #7007) in stem cell medium supplemented as described above. After overnight formation, spheroids were treated ±MitoQ for 96 h. Spheroid growth was monitored using an Axio Observer live-cell phase contrast microscope (Zeiss®).

A further series relates to SkBr3 spheroids. Nature of the series: Spheres / stem-like spheroids. The series is classed as cell-based, human. As for the experimental part:
as §3, §4, §5

For series [3], the system named is MDA-MB-231 cells. Nature of the series: Cell numbers, chemotherapy ±MitoQ, crystal violet. The series is classed as cell-based, human. The settings on record: increasing doses of chemotherapy ±100 nM MitoQ; 24-72 h. As for the experimental part: (§6) To test the effects of combination treatments on cell numbers, MDA-MB-231 or SkBr3 cancer cells were plated in 96-well plates and treated with increasing concentrations of chemotherapeutic drug ±MitoQ for 24 h (epirubicin), 48 h (doxorubicin, 5-FU, cisplatin, paclitaxel) or 72 h (gemcitabine). Cells were then fixed in 11% glutaraldehyde and stained with crystal violet. The dye retained by the cells was solubilized in 10% acetic acid, and the optical density (570 nm) was measured using a SpectraMax i3 spectrophotometer equipped with a MiniMax™ imaging cytometer.

Series [4] relates to SkBr3 cells. Description: Cell numbers, chemotherapy ±MitoQ, crystal violet. The series is classed as cell-based, human. The note with it: increasing doses of chemotherapy ±100 nM MitoQ; 24-72 h. The method, then:
as §6

Series [5] has as its system murine 4T1 breast cancer cells. Nature of the series: Cell viability, CellTiter-Glo. The series is classed as cell-based, mouse. The note with it: increasing doses of DXR ±100 nM MitoQ, 48 h. The method, then: Cells were plated in 96-well plates and left to adhere for 16 hours. In order to avoid reaching full confluence at the endpoint, starting cell count was defined according to doubling time and the duration of the experiment. Following adhesion, cells were treated with the indicated compounds for 48 h, after which staining was done with a CellTiter-Glo Luminescent Cell Viability assay (Promega®, catalogue #G7570), according to supplier's instructions. This method is based on the quantification of intracellular ATP levels.

Each structure is given as a SMILES string.

This note sets out measurements from patent publication US20250270648A1, “MOLECULAR SIGNATURE FOR ASSESSING THE RESPONSIVENESS OF CANCER TO MITOCHONDRIA-TARGETED ANTIOXIDANTS” (UNIVERSITÉ CATHOLIQUE DE LOUVAIN, priority 2021, published 2025).

As to `COC1=C(OC)C(=O)C(CCCCCCCCCC[P+](c2ccccc2)(c2ccccc2)c2ccccc2)=C(C)C1=O` [MitoQ], the “5′ AMP-activated protein kinase (AMPK), P-T172-AMPK/total AMPK” value in the series with MDA-MB-231 cells [1] (MitoQ 100 nM) is “activation”. In addition, the “SNAIL, ZEB1, Twist1 and E-cadherin protein expression” value with MDA-MB-231 cells [1] (MitoQ 500 nM) is “decreased”. Further, the AMPK activation entry in the series with SkBr3 cells [2] (MitoQ 100 nM) is “did not significantly activate”. In addition, the SNAIL protein expression entry in the series on SkBr3 cells [2] (MitoQ 500 nM) is recorded as “decreased”. For the same compound, the “dose sufficient to destabilize already formed spheroids” value in the series on MDA-MB-231 spheroids came out at 100 nM. For the same compound, in the series on MDA-MB-231 spheroids (MitoQ 250 nM), the “mRNA expression of stem cells markers POU5F1/(Oct4), NANOG and SOX2” value is “significant decrease”; the spheroid formation entry is “inhibited”. Besides, in the series with SkBr3 spheroids, the “NANOG and SOX2 mRNA expression” value was “decreased”; the “spheroid formation and spheroid destabilization” value was “Neither inhibition of spheroid formation not spheroid destabilization was seen”. In addition, the “cytostatic/cytotoxic effects of doxorubicin, epirubicin, 5-fluorouracil (5-FU), cisplatin, paclitaxel and gemcitabine” value in the series with MDA-MB-231 cells [3] is reported as “did not alter”. Moreover, in the series on SkBr3 cells [4], the “cytostatic/cytotoxic effects of doxorubicin, epirubicin, 5-fluorouracil (5-FU), cisplatin, paclitaxel and gemcitabine” value is given as “did not alter”. Further, in series [5], the DXR-induced cell killing entry was “did not interfere”.
